Source: patent publication US20050229276A1, “Method of producing cyclamen root tuber and method of proliferating cyclamen using the same” (Tokyo University of Agricultural, priority 2002, published 2005)

Tested on: cyclamen root tuber
Test: Germination and rooting of cut-off root tubers in solid media
Format: in vivo
Design: Germination rate / Rooting rate: unit not given here
Conditions: NAA 0.05 mg/l
Method: The cyclamen root tuber obtained was cut off from the parent body and planted in an experimental plot prepared by adding 30 to 90 g/l of sucrose, NAA and BA to the ⅓ MS medium as shown in Table 4.6 g/l of agar was added to the medium which was then sterilized in an autoclave to prepare a solid medium having a pH of 7.0. The culture test tube was left under illumination for 12 hours a day and in the dark for 12 hours. As a result, the root tubers germinated and rooted while enlarging.

[1] = BA 0.05 mg/l (second 0.05 block, r16), sucrose 30 g/l, 60-th day
[2] = BA 0.05 mg/l (second 0.05 block, r16), sucrose 30 g/l, 97-th day
[3] = BA 0.05 mg/l (second 0.05 block, r16), sucrose 30 g/l, 127-th day
[4] = BA 0.05 mg/l (second 0.05 block, r17), sucrose 50 g/l, 60-th day
[5] = BA 0.05 mg/l (second 0.05 block, r17), sucrose 50 g/l, 97-th day
[6] = BA 0.05 mg/l (second 0.05 block, r17), sucrose 50 g/l, 127-th day
[7] = BA 0.05 mg/l (second 0.05 block, r18), sucrose 70 g/l, 60-th day
[8] = BA 0.05 mg/l (second 0.05 block, r18), sucrose 70 g/l, 97-th day
[9] = BA 0.05 mg/l (second 0.05 block, r18), sucrose 70 g/l, 127-th day
[10] = BA 0.05 mg/l (second 0.05 block, r19), sucrose 90 g/l, 60-th day
[11] = BA 0.05 mg/l (second 0.05 block, r19), sucrose 90 g/l, 97-th day
[12] = BA 0.05 mg/l (second 0.05 block, r19), sucrose 90 g/l, 127-th day
[13] = BA 0.05 mg/l, sucrose 30 g/l, 60-th day
[14] = BA 0.05 mg/l, sucrose 30 g/l, 97-th day
[15] = BA 0.05 mg/l, sucrose 30 g/l, 127-th day
[16] = BA 0.05 mg/l, sucrose 50 g/l, 60-th day
[17] = BA 0.05 mg/l, sucrose 50 g/l, 97-th day
[18] = BA 0.05 mg/l, sucrose 50 g/l, 127-th day
[19] = BA 0.05 mg/l, sucrose 70 g/l, 60-th day
[20] = BA 0.05 mg/l, sucrose 70 g/l, 97-th day
[21] = BA 0.05 mg/l, sucrose 70 g/l, 127-th day
[22] = BA 0.05 mg/l, sucrose 90 g/l, 60-th day
[23] = BA 0.05 mg/l, sucrose 90 g/l, 97-th day
[24] = BA 0.05 mg/l, sucrose 90 g/l, 127-th day
[25] = BA 0.1 mg/l, sucrose 30 g/l, 60-th day
[26] = BA 0.1 mg/l, sucrose 30 g/l, 97-th day
[27] = BA 0.1 mg/l, sucrose 30 g/l, 127-th day
[28] = BA 0.1 mg/l, sucrose 50 g/l, 60-th day
[29] = BA 0.1 mg/l, sucrose 50 g/l, 97-th day
[30] = BA 0.1 mg/l, sucrose 50 g/l, 127-th day
[31] = BA 0.1 mg/l, sucrose 70 g/l, 60-th day
[32] = BA 0.1 mg/l, sucrose 70 g/l, 97-th day
[33] = BA 0.1 mg/l, sucrose 70 g/l, 127-th day
[34] = BA 0.1 mg/l, sucrose 90 g/l, 60-th day
[35] = BA 0.1 mg/l, sucrose 90 g/l, 97-th day
[36] = BA 0.1 mg/l, sucrose 90 g/l, 127-th day
[37] = BA 1.0 mg/l, sucrose 30 g/l, 60-th day
[38] = BA 1.0 mg/l, sucrose 30 g/l, 97-th day
[39] = BA 1.0 mg/l, sucrose 30 g/l, 127-th day
[40] = BA 1.0 mg/l, sucrose 50 g/l, 60-th day
[41] = BA 1.0 mg/l, sucrose 50 g/l, 97-th day
[42] = BA 1.0 mg/l, sucrose 50 g/l, 127-th day
[43] = BA 1.0 mg/l, sucrose 70 g/l, 60-th day
[44] = BA 1.0 mg/l, sucrose 70 g/l, 97-th day
[45] = BA 1.0 mg/l, sucrose 70 g/l, 127-th day
[46] = BA 1.0 mg/l, sucrose 90 g/l, 60-th day
[47] = BA 1.0 mg/l, sucrose 90 g/l, 97-th day
[48] = BA 1.0 mg/l, sucrose 90 g/l, 127-th day

`c1ccc(CNc2ncnc3[nH]cnc23)cc1` [BA, benzylaminopurine] was tested, and the Enlarging ratio [1] was 3.23, the Germination rate [1] was 40 and the Rooting rate [1] was 20. For the same molecule, the Enlarging ratio [2] was 3.97, the Germination rate [2] was 40 and the Rooting rate [2] was 40. It also gave an Enlarging ratio [3] of 4.23, a Germination rate [3] of 40 and a Rooting rate [3] of 40. It also gave an Enlarging ratio [4] of 2.52, a Germination rate [4] of 40 and a Rooting rate [4] of 0. The Enlarging ratio [5] was 2.85, the Germination rate [5] was 60 and the Rooting rate [5] was 0. It also gave an Enlarging ratio [6] of 3.25, a Germination rate [6] of 60 and a Rooting rate [6] of 20. For the same molecule, the Germination rate [7] was 20, the Rooting rate [7] was 20 and the Germination rate [8] was 40. For the same molecule, the Rooting rate [8] was 20, the Germination rate [9] was 40 and the Rooting rate [9] was 20. The Enlarging ratio [10] was 2.67, the Germination rate [10] was 0 and the Rooting rate [10] was 20. The Enlarging ratio [11] was 4.98, the Germination rate [11] was 60 and the Rooting rate [11] was 20. The Enlarging ratio [12] was 5.78, the Germination rate [12] was 60 and the Rooting rate [12] was 20. The Enlarging ratio [13] was 2.17, the Germination rate [13] was 20 and the Rooting rate [13] was 40. For the same molecule, the Enlarging ratio [14] was 2.41, the Germination rate [14] was 80 and the Rooting rate [14] was 40. For the same molecule, the Enlarging ratio [15] was 2.47, the Germination rate [15] was 80 and the Rooting rate [15] was 40. For the same molecule, the Enlarging ratio [16] was 2.83, the Germination rate [16] was 20 and the Rooting rate [16] was 20. For the same molecule, the Enlarging ratio [17] was 3.43, the Germination rate [17] was 60 and the Rooting rate [17] was 80. It also gave an Enlarging ratio [18] of 4.23, a Germination rate [18] of 60 and a Rooting rate [18] of 80. For the same molecule, the Germination rate [19] was 40, the Rooting rate [19] was 0 and the Germination rate [20] was 40. The Rooting rate [20] was 60, the Germination rate [21] was 40 and the Rooting rate [21] was 60. It also gave an Enlarging ratio [22] of 1.93, a Germination rate [22] of 40 and a Rooting rate [22] of 20. For the same molecule, the Enlarging ratio [23] was 2.11, the Germination rate [23] was 40 and the Rooting rate [23] was 60. For the same molecule, the Enlarging ratio [24] was 2.11, the Germination rate [24] was 40 and the Rooting rate [24] was 60. It also gave an Enlarging ratio [25] of 2.05, a Germination rate [25] of 40 and a Rooting rate [25] of 40. The Enlarging ratio [26] was 2.35, the Germination rate [26] was 60 and the Rooting rate [26] was 80. The Enlarging ratio [27] was 2.35, the Germination rate [27] was 60 and the Rooting rate [27] was 80. The Enlarging ratio [28] was 2.40, the Germination rate [28] was 20 and the Rooting rate [28] was 40. The Enlarging ratio [29] was 2.90, the Germination rate [29] was 40 and the Rooting rate [29] was 40. For the same molecule, the Enlarging ratio [30] was 3.10, the Germination rate [30] was 60 and the Rooting rate [30] was 60. It also gave an Enlarging ratio [31] of 1.40, a Germination rate [31] of 20 and a Rooting rate [31] of 0. For the same molecule, the Enlarging ratio [32] was 2.47, the Germination rate [32] was 40 and the Rooting rate [32] was 0. The Enlarging ratio [33] was 2.73, the Germination rate [33] was 40 and the Rooting rate [33] was 20. The Enlarging ratio [34] was 2.68, the Germination rate [34] was 0 and the Rooting rate [34] was 40. For the same molecule, the Enlarging ratio [35] was 3.28, the Germination rate [35] was 0 and the Rooting rate [35] was 40. The Enlarging ratio [36] was 3.28, the Germination rate [36] was 20 and the Rooting rate [36] was 40. For the same molecule, the Enlarging ratio [37] was 2.25, the Germination rate [37] was 0 and the Rooting rate [37] was 0. For the same molecule, the Enlarging ratio [38] was 3.50, the Germination rate [38] was 40 and the Rooting rate [38] was 0. It also gave an Enlarging ratio [39] of 3.95, a Germination rate [39] of 40 and a Rooting rate [39] of 0. It also gave an Enlarging ratio [40] of 2.27, a Germination rate [40] of 20 and a Rooting rate [40] of 0. It also gave an Enlarging ratio [41] of 3.18, a Germination rate [41] of 40 and a Rooting rate [41] of 20. For the same molecule, the Enlarging ratio [42] was 4.02, the Germination rate [42] was 40 and the Rooting rate [42] was 20. For the same molecule, the Enlarging ratio [43] was 2.25, the Germination rate [43] was 0 and the Rooting rate [43] was 20. The Enlarging ratio [44] was 4.03, the Germination rate [44] was 20 and the Rooting rate [44] was 40. The Enlarging ratio [45] was 4.81, the Germination rate [45] was 20 and the Rooting rate [45] was 60. It also gave an Enlarging ratio [46] of 1.84, a Germination rate [46] of 40 and a Rooting rate [46] of 20. For the same molecule, the Enlarging ratio [47] was 2.11, the Germination rate [47] was 60 and the Rooting rate [47] was 40. The Enlarging ratio [48] was 2.47, the Germination rate [48] was 60 and the Rooting rate [48] was 40.
